Results reported in US20070213359A1 (ACADIA Pharmaceuticals Inc., priority 2005, published 2007).
Like-named read-outs stand apart in the source and are kept apart here.

Target: Ghrelin receptor (Homo sapiens, UniProt Q92847)
Experiment: Receptor Selection and Amplification Technology (R-SAT) assay
Type: cell-based
Set-up: expressed in transfected cells; host or cells: NIH3T3
Conditions: for IC50: '—' not defined (nd used separately), read-out: RSAT pIC50 (converted); for Emax: read-out: RSAT Eff(%)
[1] = percent inhibition at saturating ligand, normalized to reference ligand Substance P analog = 100%
[2] = negative logarithm of ligand concentration causing 50% inhibition of constitutive receptor response, transfected NIH3T3 cells

Sequence of Ghrelin receptor (Q92847 whole entry): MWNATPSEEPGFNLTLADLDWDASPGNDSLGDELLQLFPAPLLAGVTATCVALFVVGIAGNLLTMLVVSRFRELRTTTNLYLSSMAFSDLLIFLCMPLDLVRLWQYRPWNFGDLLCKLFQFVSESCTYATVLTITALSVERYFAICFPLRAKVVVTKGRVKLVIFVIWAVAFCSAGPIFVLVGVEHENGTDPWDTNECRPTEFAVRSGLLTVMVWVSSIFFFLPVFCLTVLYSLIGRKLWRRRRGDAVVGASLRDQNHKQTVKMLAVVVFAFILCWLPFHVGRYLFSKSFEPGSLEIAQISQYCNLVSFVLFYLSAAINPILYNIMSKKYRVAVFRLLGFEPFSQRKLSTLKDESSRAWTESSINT

SMILES	Emax [%]	Emax [1] [%]	IC50 [2] [µM]	also measured
COc1cccc2c(C(=O)NCc3cccc(Cl)c3)cn(CCCN3CCCN(Cc4ccc(F)cc4)CC3)c12	113			IC50 ([…]): 0.00316 µM
COc1cccc2c(C(=O)NCc3cccc(C)c3)cn(CCCN3CCC(C(=O)c4ccccc4)CC3)c12	126			IC50 ([…]): 0.1 µM
CCc1cccc2c(C(C)=O)cn(CCCN3CCC(N4C(=O)Cc5ccccc54)CC3)c12				RSAT Eff(%): 147%; IC50 ([…]): 0.1 µM
O=C(c1cn(CCCN2CCCN(CCc3ccccc3)CC2)c2ncccc12)C(F)(F)F		51		
CC(=O)c1cn(CCCN2C3CCC2CC(CC(=O)c2ccc(Cl)cc2)C3)c2c(C)cccc12 (stereo not drawn)	19			
CC(=O)c1cn(CCCN2C3CCC2CC(Oc2ccccc2Cl)C3)c2c(Cl)cccc12 (stereo not drawn)	60			
CC(=O)c1cn(CCCN2CCC(c3nc(-c4ccccc4)no3)CC2)c2c(Br)cccc12		69	0.501	
CC(=O)c1cn(CCCN2CCCN(CCc3ccccc3)CC2)c2c(C#N)cccc12		83	0.0398	
CCOC(=O)C1CCN(CCCn2cc(C(=O)CC)c3ccccc32)CC1		39	6.31	
CCCOC1CCN(CCCn2cc(C(C)=O)c3ccccc32)CC1	112			IC50 ([…]): 0.631 µM
CC(=O)c1cn(CCCN2C3CCC2CC(CCc2ccc(Cl)cc2)C3)c2c(Cl)cccc12 (stereo not drawn)		122	0.0316	
O=C(c1cn(CCCNCCOc2ccccc2)c2ncccc12)C(F)(F)F		26		
COc1cccc2c(C#N)cn(CCCN3CCN(CCOc4ccccc4)CC3)c12		42		
CC(=O)c1cn(CCCN2CCC(c3nc(-c4cccnc4)no3)CC2)c2c(C#N)cccc12	77			IC50 ([…]): 0.0501 µM
COc1cccc2c(C(=O)NCC(C)C)cn(CCCNC3Cc4ccccc4C3)c12	102			IC50 ([…]): 0.0316 µM
CCCCC(=O)c1cn(CCCN2C3CCC2CC(Oc2ccc(Cl)cc2)C3)c2ccc(OC)cc12 (stereo not drawn)		110	0.126	
CC(=O)c1cn(CCCN2CCC(C(=O)c3ccccc3)CC2)c2ccccc12		64	5.01	
CCCCC[C@H]1C[C@H]2CC[C@@H](C1)N2CCCn1cc(C(=O)c2ccccc2)c2cccc(OC)c21	91			IC50 ([…]): 0.2 µM
CC(=O)c1cn(CCCNCCOc2ccccc2)c2c(Cl)cccc12		84	0.1	
CC(=O)c1cn(CCCN2CCCC(Oc3ccc(Cl)cc3)C2)c2c(C)cccc12 (stereo not drawn)	-2			
CCOC(=O)C1CCN(CCCn2cc(C(C)=O)c3cccc(OC)c32)CC1		127	0.398	
COc1cccc2c(C(=O)Cc3ccccc3)cn(CCCN3CCN(c4ncc(C(F)(F)F)cc4Cl)CC3)c12	95			IC50 ([…]): 0.00794 µM
CC(=O)c1cn(CC(C)CN2CCN(C(C)c3ccccc3)CC2)c2ccccc12 (stereo not drawn)		35	1	
COc1ccc2c(c1)c(C(C)=O)cn2CCCN1CCC(Oc2ccc(Cl)cc2)CC1		104	0.501	
O=C(c1cn(CCCN2C3CCC2CC(OCC2CC2)C3)c2ccccc12)C(F)(F)F (stereo not drawn)		103	0.501	
COc1cccc2c(C(=O)NCC(C)C)cn(CCCNCCOc3ccccc3)c12	118			IC50 ([…]): 0.158 µM
O=C(c1cn(CCCN2CCN(CCOc3ccccc3)CC2)c2ncccc12)C(F)(F)F		27		

SMILES	Emax [%]	Emax [1] [%]	IC50 [2] [µM]	also measured
COc1cccc2c(C(C)=O)cn(CC(C)CN3CCCC(Oc4ccc(Cl)cc4)C3)c12 (stereo not drawn)	-1			
CC(=O)c1cn(CCN2C3CCC2CC(O)(c2ccc(F)cc2)C3)c2ccccc12 (stereo not drawn)		-11	2.51	
O=C(c1cn(CCCNC2Cc3ccccc3C2)c2ncccc12)C(F)(F)F		-3		
CC(=O)c1cn(CCCCN2C3CCC2CC(O)(c2ccc(F)cc2)C3)c2ccccc12 (stereo not drawn)	2			
CC(=O)c1c(C)n(CCCN2CCC3(CC2)CC(=O)c2ccccc2O3)c2c(Br)cccc12	8			
COc1cccc2c(C(=O)c3ccccc3)cn(CCCN3CCC(c4nc(-c5ccncc5)no4)CC3)c12	98			IC50 ([…]): 0.0251 µM
COc1cccc2c(C(C)=O)cn(CC(C)CN3C4CCC3CC(Oc3ccc(F)cc3)C4)c12 (stereo not drawn)	44			
COc1cccc2c(C(C)=O)cn(CCCN3CCC4CCCCC4C3)c12 (stereo not drawn)		69	1	
CC(=O)c1cn(CCN2CCC(Cc3ccccc3)CC2)c2ccccc12		77	0.398	
COc1cccc2c(C(C)=O)cn(CCCN3CCN(C(C)c4ccccc4)CC3)c12 (stereo not drawn)		114	0.158	
CC(=O)c1cn(CCCN2C3CCC2CC(CCc2ccc(Cl)cc2)C3)c2c(C)cccc12 (stereo not drawn)	50		0.1	
COc1cccc2c(C(C)=O)cn(CC(C)CN3CCN(c4ncc(C(F)(F)F)cc4Cl)CC3)c12 (stereo not drawn)		95	0.158	
CC(=O)c1cn(CCCN2CCC(Oc3ccc(F)cc3)CC2)c2ccccc12.O=C(O)C(=O)O [drawing 520]			0.251	RSAT Eff(%) [1]: 128%
COc1cccc2c(C(C)=O)cn(CC(C)CN3CCCN(CCc4ccccc4)CC3)c12 (stereo not drawn)	31			
COc1cccc2c(C(C)=O)cn(CCCN3CCC(N4CCOCC4)CC3)c12	95			IC50 ([…]): 1 µM
CC(=O)c1cn(CC(C)CN2CCC(Oc3ccc(F)cc3)CC2)c2ccccc12 (stereo not drawn)		98	0.501	
CC(=O)c1cn(CCCN2CCC3(CC2)CC(=O)c2ccccc2O3)c2c(C)cccc12		71	0.316	
COc1cccc2c(C(=O)NCC(C)C)cn(CCCN3CCCN(Cc4ccccc4Cl)CC3)c12	100			IC50 ([…]): 0.0158 µM
CC(=O)c1cn(CCN2C3CCC2CC(OCC2CC2)C3)c2ccccc12 (stereo not drawn)		54	0.251	
COc1cccc2c(C(C)=O)cn(CCCN3C4CCC3CC(O)(c3ccc(F)cc3)C4)c12 (stereo not drawn)	3			
CCC(=O)c1cn(CCCN2CCC(C(=O)c3ccccc3)CC2)c2ccccc12		53	15.8	
COc1cccc2c(C(=O)C3CC3)cn(CCCN3CCC(C(=O)c4ccccc4)CC3)c12	100			IC50 ([…]): 0.398 µM
COc1cccc2c(C(=O)Cc3ccccc3)cn(CCCNC3Cc4ccccc4C3)c12	103			IC50 ([…]): 0.0501 µM
O=C(c1cn(CCCN2CCC(c3nc(-c4ccncc4)no3)CC2)c2ncccc12)C(F)(F)F		31		
CCc1cccc2c(C(C)=O)cn(CCCN3CCN(CCOc4ccc(Cl)cc4)CC3)c12	24			
CC(=O)c1c(C)n(CCCN2CCC(N3C(=O)Cc4ccccc43)CC2)c2c(Br)cccc12				RSAT Eff(%): 12%
CC(=O)c1cn(CCCCN2CCN(C(C)c3ccccc3)CC2)c2ccccc12 (stereo not drawn)		69	2	

SMILES	Emax [%]	Emax [1] [%]	IC50 [2] [µM]	also measured
COc1ccccc1C1CCN(CCCn2cc(C(=O)C(F)(F)F)c3ccccc32)CC1		82	1.58	
CC(=O)c1cn(CCCN2CCN(Cc3ccc(Cl)cc3Cl)CC2)c2c(C#N)cccc12		92	0.0158	
COc1cccc2c(C(=O)C3CC3)cn(CCCN3CCCN(CCc4ccccc4)CC3)c12	100			IC50 ([…]): 0.00126 µM
CCCCC(=O)c1cn(CCCN2C3CCC2CC(OCC2CC2)C3)c2ccc(OC)cc12 (stereo not drawn)	132		0.2	
CC(C)CC(=O)c1cn(CCCN2CCC(Oc3ccccc3Cl)CC2)c2ccccc12		96	1.58	
COc1cccc2c(C(=O)NCC(C)C)cn(CCCN3C4CCC3CC(Oc3ccc(F)cc3)C4)c12 (stereo not drawn)			0.0794	RSAT Eff(%) [1]: 147%
COc1ccc2[nH]c3c(c2c1)CCN(CCCn1cc(C(C)=O)c2ccc(OC)cc21)C3		69		IC50 ([…]): 0.794 µM
COc1cccc2c(C(C)=O)cn(CCCN3CCC(O)(Cc4ccccc4)CC3)c12		106	0.126	
COc1ccc2[nH]c3c(c2c1)CCN(CCCn1cc(C(=O)C(F)(F)F)c2ccccc21)C3		106	2.51	
COc1cccc2c(C(=O)Cc3ccccc3)cn(CCCN3C4CCC3CC(Oc3ccccc3Cl)C4)c12 (stereo not drawn)	129			IC50 ([…]): 0.00398 µM
CCCOC1CCN(CCCn2cc(C(=O)CC(C)C)c3ccccc32)CC1		81	0.126	
CC(C)CC(=O)c1cn(CCCN2CCN(C(C)c3ccccc3)CC2)c2ccccc12 (stereo not drawn)	106			IC50 ([…]): 0.398 µM
CC(=O)c1cn(CCCCN2CCC(C(=O)c3ccccc3)CC2)c2ccccc12	38			
COc1cccc2c(C(C)=O)cn(CCCN3CCN(CC4CCCO4)CC3)c12 (stereo not drawn)		98	0.631	
COc1cccc2c(C#N)cn(CCCN3CCC(c4nc(-c5cccnc5)no4)CC3)c12		23		
COc1cccc2c(C(=O)NCc3cccc(C)c3)cn(CCCN3CCC4(CC3)CC(=O)c3ccccc3O4)c12	63			IC50 ([…]): 0.158 µM
CC(=O)c1cn(CCCN2CCC3(CC2)CC(=O)c2ccccc2O3)c2c(Br)cccc12	3			
COc1ccc2[nH]c3c(c2c1)CCN(CC(C)Cn1c(=O)sc2ccccc21)C3 (stereo not drawn)		-10		
CC(=O)c1cn(CCCN2CCC(C(=O)c3ccccc3)CC2)c2c(Cl)cccc12		92	1580	
CCCCC1CCN(CCCn2cc(C(C)=O)c3cc(OC)ccc32)CC1		118	0.398	
COc1cccc2c(C(=O)NCC(C)C)cn(CCCN3CCC(c4nc(-c5ccncc5)no4)CC3)c12			0.158	RSAT Eff(%) [1]: 93%
CC(=O)c1cn(CCCN2C3CCC2CC(CC(=O)c2ccc(Cl)cc2)C3)c2c(Br)cccc12 (stereo not drawn)	33			
CCC(=O)c1cn(CCCN2C3CCC2CC(OCC2CC2)C3)c2ccccc12 (stereo not drawn)		120	2.51	
COc1ccccc1C1CCN(CCCn2cc(C(C)=O)c3cccc(Cl)c32)CC1		103	0.501	
CCCCC1CCN(CCCn2cc(C(=O)CC)c3ccccc32)CC1		92	1	
COc1cccc2c(C(=O)NCc3cccc(Cl)c3)cn(CCCN3CCC(C(=O)c4ccccc4)CC3)c12	114			IC50 ([…]): 2.51 µM
